Laboratory results as given in article PMC7677321, “Purification and biochemical characterization of Hel a 6, a cross-reactive pectate lyase allergen from Sunflower (Helianthus annuus L.) pollen” (Scientific Reports, 2020).

Target: T1, Hel a 6 (Helianthus annuus, UniProt A0A251RNJ1)
T1 construct: gene PLY2; natural protein purified from sunflower pollen
T1 sequence (A0A251RNJ1 23-394): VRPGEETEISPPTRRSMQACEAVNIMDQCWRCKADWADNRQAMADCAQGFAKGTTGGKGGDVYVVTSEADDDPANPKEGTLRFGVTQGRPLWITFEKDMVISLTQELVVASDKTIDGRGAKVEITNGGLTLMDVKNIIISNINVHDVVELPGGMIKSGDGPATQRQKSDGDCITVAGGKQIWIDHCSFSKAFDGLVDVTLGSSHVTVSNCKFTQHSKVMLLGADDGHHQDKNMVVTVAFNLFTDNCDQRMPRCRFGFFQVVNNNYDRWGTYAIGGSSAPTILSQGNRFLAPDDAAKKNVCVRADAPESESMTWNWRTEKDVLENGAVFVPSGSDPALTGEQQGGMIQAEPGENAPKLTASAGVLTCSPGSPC
Test: pectate lyase assay, A235 increase
Assay type: biochemical
Details: 10 mM salicylic acid; 0.2% polygalacturonic acid, 0.2 mM CaCl2, 25 mM Tris-HCl pH 8.0, 37 °C (methods; results say 40 °C)

Compound: O=C(O)c1ccccc1O [salicylic acid]
- pectate lyase assay, A235 increase: the enzyme activity was ceased entirely when salicylic acid was added to the reaction mix
